# Patent publication US6214833A, “Pyrimidinone-1,3-oxathiolane derivatives with antiviral activity” (Zambon Group S.p.A., priority 1997, dated 2001)
# System: fresh human macrophages infected by the macrophage-trophic HIV-1 PAR strain
# Experiment: anti-HIV activity on macrophages: inhibition of viral reverse transcriptase activity in culture supernatant at peak
# Assay type: cell-based, HIV-1 PAR strain; human macrophages
# Settings: Human immunodeficiency virus 1, Macrophage; fresh human macrophages infected by HIV-1 PAR; about 1 month culture at 37° C.; at peak of reverse transcriptase expression
# Procedure: (§1) The antiviral activity of the compounds of formula I, object of the present invention, was evaluated on the MT4 human lymphocytes infected by HIV-1 BRU strain and on fresh human macrophages infected by the macrophage-trophic HIV-1 PAR strain.
# (§2) Both kinds of experiment were carried out following conventionally used methods for the evaluation of reverse transcriptase inhibitors and are predictive of the in vivo anti-HIV activity.
# (§3) The anti-HIV activity of the compounds of formula I was evaluated on the limphocitic human cell line MT4 infected by HIV-1 strain BRU and on fresh human macrophages infected by the macrophage-trophic HIV- 1 PAR strain.
# The cells, infected and treated with the compounds of formula I, were cultured at 37° C. for about 1 month. Every 3-4 days the culture supernatant was withdrawn and substituted with fresh medium containing or not the compounds of formula I. The viral reverse-transcriptase activity, determined in the culture supernatant every 3-4 days, was followed up to the end of the experiment by determining the maximum peak of the enzyme expression. In the correspondence of such a peak the anti-HIV activity was evaluated as 50% inhibition (IC50) of the enzymatic activity in the supernatant of the infected and treated cultures in comparison with the control ones.
# The used methodology was described by Schmidtmayerova H. et al. on Virology (1992), 190, 124-133.
# (§4) In the following table the data of anti-HIV activity on both the cell lines for some representative compounds of formula I are reported.
row,SMILES,IC50
1,"O=C(CCCCCNCCCCCNCc1ccccc1)Nc1ccn([C@@H]2CS[C@H](CO)O2)c(=O)n1 (relative stereo) [Compound 57, (±)-1-(2-Hydroxymethyl-1,3-oxathiolan-5-yl)-4-[6-[5-(phenylmethylamino)pentylamino]-hexanoylamino]-2(1H)-pyrimidinone]",0.1 µM
2,"O=C(CCCCCNCCCCCCNCc1ccccc1)Nc1ccn([C@@H]2CS[C@H](CO)O2)c(=O)n1 (relative stereo) [Compound 56, (±)-1-(2-Hydroxymethyl-1,3-oxathiolan-5-yl)-4-[6-[6-phenylmethylamino)hexylamino]-hexanoylamino]-2(1H)-pyrimidinone]",0.1 µM
3,"Nc1ccn([C@@H]2CS[C@H](CO)O2)c(=O)n1 (relative stereo) [BCH-189, 4-amino-1-(2-hydroxymethyl-1,3-oxathiolan-5-yl)-2(1H)-pyrimidinone, reference compound]",0.1 µM

# System: limphocitic human cell line MT4 infected by HIV-1 strain BRU
# Experiment: anti-HIV activity on lymphocytes (MT4 cells): inhibition of viral reverse transcriptase activity in culture supernatant
# Assay type: cell-based, HIV-1 strain BRU; human MT4 cells
# Settings: Human immunodeficiency virus 1, Lymphocyte, MT4 human lymphocytes infected by HIV-1 BRU, 7-8 days culture at 37° C.
# Procedure: as §1, §2, §3
# The cells, infected and treated with the compounds of formula I, were cultured at 37° C. for 7-8 days. Every 3-4 days the culture supernatant was withdrawn and substituted with fresh medium containing or not the compounds of formula I. The anti-HIV activity was evaluated at the end of the experiment as 50% inhibition (IC50) of the activity of the viral reverse transcriptase in the supernatant of infected cultures in comparison with the control cultures.
# The used methodologies were described in the papers published by Rey M. A. et al. on Biochem. Biophys. Res. Commun. (1984), 121, 126-133 and on Virology (1991), 181, 165-171.
# as §4
row,SMILES,IC50
1,"Nc1ccn([C@@H]2CS[C@H](COC(=O)CCCCCNCCCCCNCc3ccccc3)O2)c(=O)n1 (relative stereo) [Compound 48, (±)-4-Amino-1-[2-[6-[5-(phenylmethylamino)pentylamino]-hexanoyloxymethyl]-1,3-oxathiolan-5-yl]-2(1H)-pyrimidinone]",0.15 µM
2,"CC(C)(C)OC(=O)N(CCCCCC(=O)OC[C@@H]1O[C@H](n2ccc(N)nc2=O)CS1)Cc1ccccc1C(F)(F)F (relative stereo) [Compound 7, (±)-4-Amino-1-[2-[6-[N-tert-butoxycarbonyl-N-(2-trifluoromethyl-phenyl)methyl-amino]-hexanoyloxymethyl-]-1,3-oxathiolan-5-yl]-2(1H)-pyrimidinone]",0.001 to 0.01 µM
3,"Nc1ccn([C@@H]2CS[C@H](COC(=O)CCCCCNCc3cccc(C(F)(F)F)c3)O2)c(=O)n1 (relative stereo) [Compound 53, (±)-4-Amino-1-[2-[6-[(3trifluorophenyl)methylamino]-hexanoyloxymethyl]-1,3-oxathiolan-5-yl]-2(1H)-pyrimidinone]",0.7 µM
4,"CC(C)(C)OC(=O)N(CCCCCC(=O)OC[C@@H]1O[C@H](n2ccc(N)nc2=O)CS1)Cc1ccccc1 (relative stereo) [Compound 4, (±)-4-Amino-1-[2-[6-(N-tert-butoxycarbonyl-N-phenylmethylamino)-hexanoyloxy-methyl]-1,3-oxathiolan-5-yl]-2(1H)-pyrimidinone]",0.001 µM
5,"Nc1ccn([C@@H]2CS[C@H](COC(=O)CCCCCNCc3ccccc3C(F)(F)F)O2)c(=O)n1 (relative stereo) [Compound 55, (±)-4-Amino-1-[2-[6-[(2-trifluorophenyl)methylamino]-hexanoyloxymethyl]-1,3-oxathiolan-5-yl]-2(1H)-pyrimidinone]",0.1 µM
6,"Nc1ccn([C@@H]2CS[C@H](COC(=O)CCCCCNCCCCCCNCc3ccccc3C(F)(F)F)O2)c(=O)n1 (relative stereo) [Compound 54, (±)-4-Amino-1-[2-[6-[6-[(2-trifluoromethylphenyl)methylamino]-hexylamino]-hexanoyloxymethyl]-1,3-oxathiolan-5-yl]-2(1H)-pyrimidinone]",0.8 µM
7,"O=C(CCCCCNCCCCCNCc1ccccc1)Nc1ccn([C@@H]2CS[C@H](CO)O2)c(=O)n1 (relative stereo) [Compound 57, (±)-1-(2-Hydroxymethyl-1,3-oxathiolan-5-yl)-4-[6-[5-(phenylmethylamino)pentylamino]-hexanoylamino]-2(1H)-pyrimidinone]",0.41 µM
8,"CC(C)(C)OC(=O)N(CC(=O)OC[C@@H]1O[C@H](n2ccc(N)nc2=O)CS1)Cc1ccccc1 (relative stereo) [Compound 10, (±)-4-Amino-1-[2-[(N-tert-butoxycarbonyl-N-phenylmethylamino)-acetyloxymethyl]-1,3-oxathiolan-5-yl]-2(1H)-pyrimidinone]",0.01 to 0.1 µM
9,"CC(C)(C)OC(=O)N(CCCCCC(=O)OC[C@@H]1O[C@H](n2ccc(N)nc2=O)CS1)CCCCCN(Cc1ccccc1)C(=O)OC(C)(C)C (relative stereo) [Compound 1, (±)-4-Amino-1-[2-[6-[5-(N'-tert-butoxycarbonyl-N'-phenylmethylamino)-N-tert-butoxycarbonyl-pentylamino]-hexanoyloxymethyl]-1,3-oxathiolan-5-yl]-2(1H)-pyrimidinone]",0.001 to 0.005 µM
10,"CC(C)(C)OC(=O)N(CCCCCC(=O)OC[C@@H]1O[C@H](n2ccc(N)nc2=O)CS1)Cc1cccc(C(F)(F)F)c1 (relative stereo) [Compound 6, (±)-4-Amino-1-[2-[6-[N-tert-butoxycarbonyl-N-(3trifluoromethylphenyl)methyl-amino]-hexanoyloxymethyl-]1,3-oxathiolan-5-yl]-2(1H)-pyrimidinone]",0.004 µM
11,"O=C(CCCCCNCCCCCCNCc1ccccc1)Nc1ccn([C@@H]2CS[C@H](CO)O2)c(=O)n1 (relative stereo) [Compound 56, (±)-1-(2-Hydroxymethyl-1,3-oxathiolan-5-yl)-4-[6-[6-phenylmethylamino)hexylamino]-hexanoylamino]-2(1H)-pyrimidinone]",0.13 µM
12,"Nc1ccn([C@@H]2CS[C@H](CO)O2)c(=O)n1 (relative stereo) [BCH-189, 4-amino-1-(2-hydroxymethyl-1,3-oxathiolan-5-yl)-2(1H)-pyrimidinone, reference compound]",0.7 µM
13,"CC(C)(C)OC(=O)N(CCCCCCN(Cc1ccccc1C(F)(F)F)C(=O)OC(C)(C)C)CCCCCC(=O)OC[C@@H]1O[C@H](n2ccc(N)nc2=O)CS1 (relative stereo) [Compound 8, (±)-4-Amino-1-[2-[6-[6-[N'-tert-butoxycarbonyl-N'-(2-trifluoromethylphenyl)methylamino]-N-tert-butoxycarbonyl-hexylamino]-hexanoyloxymethyl]-1,3-oxathiolan-5-yl]-2(1H)-pyrimidinone]",0.1 µM
14,"CC(C)(C)OC(=O)N(CCCCCC(=O)OC[C@H]1O[C@@H](n2ccc(N)nc2=O)CS1)CCCCCN(Cc1ccccc1)C(=O)OC(C)(C)C [Compound 2, (2S, 5R)-4-Amino-1-[2-[6-[5-(N'-tert-butoxycarbonyl-N'-phenylmethylamino)-N-tert-butoxycarbonyl-pentylamino]-hexanoyloxymethyl]-1,3-oxathiolan-5-yl]-2(1H)-pyrimidinone]",< 0.1 µM
15,"Nc1ccn([C@@H]2CS[C@H](COC(=O)CCCCCNCc3ccccc3)O2)c(=O)n1 (relative stereo) [Compound 52, (±)-4-Amino-1-[2-[6-(phenylmethylamino)hexanoyloxymethyl]-1,3-oxathiolan-5-yl]-2(1H)-pyrimidinone]",0.1 to 1 µM
16,"Nc1ccn([C@@H]2CS[C@H](COC(=O)CCCCNCCCCCCNCc3ccccc3)O2)c(=O)n1 (relative stereo) [Compound 49, (±)-4-Amino-1-[2-[5-[6-(phenylmethylamino)hexylamino]-pentanoyloxymethyl]-1,3-oxathiolan-5-yl]-2(1H)-pyrimidinone]",0.9 µM
17,"CCOC(=O)N(CCCCCC(=O)OC[C@@H]1O[C@H](n2ccc(N)nc2=O)CS1)Cc1ccccc1 (relative stereo) [Compound 9, (±)-4-Amino-1-[2-[6-(N-ethoxycarbonyl-N-phenylmethylamino)-hexanoyloxymethyl]-1,3-oxathiolan-5-yl]-2(1H)-pyrimidinone]",0.001 to 0.05 µM

# System: HIV
# Experiment: not given
# Settings: compared with zidovudine, zalcitabine, didanosine and stavudine; WO 91/17159; cited from earlier work
row,SMILES,antiviral potency and toxicity compared with other RT-inhibitors
1,"Nc1ccn([C@@H]2CS[C@H](CO)O2)c(=O)n1 [lamivudine, (2R-cis)-4-amino-1-(2-hydroxymethyl-1,3-oxathiolan-5-yl)-2(1H)-pyrimidinone]","more potent and less toxic antiviral than zidovudine, zalcitabine, didanosine and stavudine"
